Here are results for seven compounds from patent US20240148821A1, “PHARMACEUTICAL USE OF CYCLIC PEPTIDE COMPOUND” (CHUGAI SEIYAKU KABUSHIKI KAISHA, priority 2021, published 2024).

Bridge positions count the residues as written; N and C are the ends. Square brackets hold non-standard residues; d marks the D form. Peptide text beside a SMILES is read from it. * marks the point of attachment. hPhe(3,5-F2-4-CF3) = N[C@@H](CCc1cc(F)c(C(F)(F)F)c(F)c1)C(=O)O; NMeAbu(3,3-F2-piperidino) = CN[C@@H](CCN1CCCC(F)(F)C1)C(=O)O; hPhe(3-Cl-4-CF3) = N[C@@H](CCc1ccc(C(F)(F)F)c(Cl)c1)C(=O)O; 3Oxa8azabicyclo(3.2.1)octane = C1CC2COCC1N2*; NEtPhe(4-Me) = CCN[C@@H](Cc1ccc(C)cc1)C(=O)O; NMePhe(4-Cl) = CN[C@@H](Cc1ccc(Cl)cc1)C(=O)O; NMeGly(cPent) = CN[C@H](C(=O)O)C1CCCC1; Phe(3-I) = N[C@@H](Cc1cccc(I)c1)C(=O)O; NMeCha = CN[C@@H](CC1CCCCC1)C(=O)O; NMeChg = CN[C@H](C(=O)O)C1CCCCC1; N(CH2CH2)2CF2 = FC1(F)CCN(*)CC1; NMeD = CN[C@@H](CC(=O)O)C(=O)O; NMeL = CN[C@@H](CC(C)C)C(=O)O; NMeNle = CCCC[C@H](NC)C(=O)O; NMeV = CN[C@H](C(=O)O)C(C)C; Morpholide = C1CN(*)CCO1; NMeA = CN[C@@H](C)C(=O)O; NMeAib = CNC(C)(C)C(=O)O; Piperidide = C1CCN(*)CC1; Ac5c = NC1(C(=O)O)CCCC1; Aze = O=C(O)[C@@H]1CCN1; Abu = CC[C@H](N)C(=O)O; Sar = CNCC(=O)O Some results are limits rather than exact numbers.

The test system of this assay is Human pancreatic cancer cell line AsPC-1 (G12D mutation Kras). Briefly: AsPC-1 cell growth inhibition (AsPC-1 CGI). The class given is cell-based. The conditions noted are these: read-out: AsPC-1 cell growth inhibition, 50% growth inhibitory concentration (IC50 value); 96 hours, CellTiter-Glo, values classified in ranges. For orientation: ATP-based viability assays read luminescence as a measure of living cells.
Description: Test compounds were serially dilated with dimethyl sulfoxide, and 200 nL was then dispensed to a U-bottom 96-well plate using Labcyte Echo. […] The cell suspension was dispensed to a. plate containing a test compound at 100 μL per well and incubated at 37° C. in a 5% carbon dioxide gas incubator. 96 hours later, 80 μL of CellTiter-Glo (Promega) was added to each well and fluorescence was measured.
`CC[C@H](C)[C@@H]1NC(=O)[C@H](CC(C)C)N(C)C(=O)C[C@@H](C(=O)N2C3CCC2COC3)N(C)C(=O)[C@H](C2CCCC2)N(C)C(=O)C2(CCCC2)NC(=O)[C@@H]2CCCN2C(=O)[C@H](CCc2cc(F)c(C(F)(F)F)c(F)c2)NC(=O)CN(C)C(=O)[C@H](Cc2ccc(C)cc2)N(CC)C(=O)[C@@H]2CCN2C(=O)[C@H](C)N(C)C1=O` [Compound 1215] ([NMeL]I[NMeA][Aze][NEtPhe(4-Me)][Sar][hPhe(3,5-F2-4-CF3)]P[Ac5c][NMeGly(cPent)][NMeD]-{3Oxa8azabicyclo(3.2.1)octane}; lactam N-11): the IC50 was at most 20 nM. The value for `CC[C@H](C)[C@@H]1NC(=O)[C@H](CC(C)C)N(C)C(=O)C[C@@H](C(=O)N2CCCCC2)N(C)C(=O)[C@H](C(C)C)N(C)C(=O)C2(CCCC2)NC(=O)[C@H](C)NC(=O)[C@H](CCc2ccc(C(F)(F)F)c(Cl)c2)NC(=O)CN(C)C(=O)[C@H](CC2CCCCC2)N(C)C(=O)[C@@H]2CCN2C(=O)[C@H](C)N(C)C1=O` [Compound 1316] ([NMeL]I[NMeA][Aze][NMeCha][Sar][hPhe(3-Cl-4-CF3)]A[Ac5c][NMeV][NMeD]-Piperidide; lactam N-11) was over 500 nM; that for `CC[C@H](C)[C@@H]1NC(=O)[C@H](CC(C)C)N(C)C(=O)C[C@@H](C(=O)N2CCOCC2)N(C)C(=O)[C@H](C2CCCCC2)N(C)C(=O)C2(CCCC2)NC(=O)[C@@H]2CCCN2C(=O)[C@H](CCc2ccc(C(F)(F)F)c(Cl)c2)NC(=O)CN(C)C(=O)[C@H](CC2CCCCC2)N(C)C(=O)CN(C)C(=O)CN(C)C1=O` [Compound 1333] ([NMeL]I[Sar][Sar][NMeCha][Sar][hPhe(3-Cl-4-CF3)]P[Ac5c][NMeChg][NMeD]-Morpholide; lactam N-11) was at most 20 nM. The value for `CCCC[C@H]1C(=O)N(C)[C@H](C(=O)N2CCCCC2)CC(=O)N(C)[C@@H](CC(C)C)C(=O)N[C@@H]([C@@H](C)CC)C(=O)N(C)CC(=O)N(C)CC(=O)N(C)[C@@H](CC2CCCCC2)C(=O)N(C)CC(=O)N[C@@H](CCc2ccc(C(F)(F)F)c(Cl)c2)C(=O)N2CCC[C@H]2C(=O)NC2(CCCC2)C(=O)N1C` [Compound 1815] ([NMeL]I[Sar][Sar][NMeCha][Sar][hPhe(3-Cl-4-CF3)]P[Ac5c][NMeNle][NMeD]-Piperidide; lactam N-11) was over 500 nM; that for `CC[C@H](C)[C@@H]1NC(=O)[C@H](CC(C)C)N(C)C(=O)C[C@@H](C(=O)N(C)C)N(C)C(=O)[C@H](C(C)C)N(C)C(=O)C2(CCCC2)NC(=O)[C@H](CC(=O)N2CCC(F)(F)CC2)N(C)C(=O)[C@H](CCc2ccc(C(F)(F)F)c(Cl)c2)NC(=O)CN(C)C(=O)[C@H](CC2CCCCC2)N(C)C(=O)CN(C)C(=O)CN(C)C1=O` [Compound 218] ([NMeL]I[Sar][Sar][NMeCha][Sar][hPhe(3-Cl-4-CF3)][NMeD](N(CH2CH2)2CF2)[Ac5c][NMeV][NMeD]-NMe2; lactam N-11) was over 500 nM. The figure for `CC[C@@H]1NC(=O)[C@H](Cc2cccc(I)c2)NC(=O)CN(C)C(=O)[C@H](Cc2ccc(Cl)cc2)N(C)C(=O)CN(C)C(=O)CN(C)C(=O)[C@H]([C@@H](C)CC)NC(=O)[C@H](CC(C)C)N(C)C(=O)C[C@@H](C(=O)N2CCCCC2)N(C)C(=O)[C@H](CC(C)C)NC(=O)C(C)(C)N(C)C1=O` [Compound 457] ([NMeL]I[Sar][Sar][NMePhe(4-Cl)][Sar][Phe(3-I)][Abu][NMeAib]L[NMeD]-Piperidide; lactam N-11) is over 500 nM; for `CC[C@H](C)[C@@H]1NC(=O)[C@H](CC(C)C)N(C)C(=O)C[C@@H](C(=O)N(C)C)N(C)C(=O)[C@H](C2CCCC2)N(C)C(=O)[C@H](C(C)C)NC(=O)[C@H](CCN2CCCC(F)(F)C2)N(C)C(=O)[C@H](CCc2ccc(C(F)(F)F)c(Cl)c2)NC(=O)CN(C)C(=O)[C@H](CC2CCCCC2)N(C)C(=O)[C@@H]2CCN2C(=O)[C@H](C)N(C)C1=O` [Compound 389] ([NMeL]I[NMeA][Aze][NMeCha][Sar][hPhe(3-Cl-4-CF3)][NMeAbu(3,3-F2-piperidino)]V[NMeGly(cPent)][NMeD]-NMe2; lactam N-11) it is over 500 nM.
